Measured values: the supplement of paper PMC10307832

Columns and labels:
Experiment in all cases: relative viability (nuclei count vs DMSO), 5 days (fraction); higher = more cells survive
GW-2580 + Pemetrexed = compound: COC1=CC=C(C=C1)COC2=C(C=C(C=C2)CC3=CN=C(N=C3N)N)OC [GW-2580] + Nc1nc2[nH]cc(CCc3ccc(C(=O)N[C@@H](CCC(=O)O)C(=O)O)cc3)c2c(=O)[nH]1 [Pemetrexed] (partner 0.2 µM)
In short: (§1)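 Five library-drug doses in √10 steps were combined with a fixed anchor-drug dose, or a single drug was given alone, by pin tool to lung cancer cell lines in 1536-well plates the day after seeding. Nuclei were stained and counted after 5 days. Relative viability is the nuclei count in treated wells over that in vehicle wells, taken as the median of duplicate plates.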

Fedratinib + Bortezomib = compound: Cc1cnc(Nc2ccc(OCCN3CCCC3)cc2)nc1Nc1cccc(S(=O)(=O)NC(C)(C)C)c1 [Fedratinib] + CC(C)C[C@H](NC(=O)[C@H](Cc1ccccc1)NC(=O)c1cnccn1)B(O)O [Bortezomib] (partner 0.002 µM)
In short: as §1

GW-2580 + Olaparib = compound: COC1=CC=C(C=C1)COC2=C(C=C(C=C2)CC3=CN=C(N=C3N)N)OC [GW-2580] + O=C(c1cc(Cc2n[nH]c(=O)c3ccccc23)ccc1F)N1CCN(C(=O)C2CC2)CC1 [Olaparib] (partner 8 µM)
In short: as §1

Fedratinib + Lapatinib = compound: Cc1cnc(Nc2ccc(OCCN3CCCC3)cc2)nc1Nc1cccc(S(=O)(=O)NC(C)(C)C)c1 [Fedratinib] + CS(=O)(=O)CCNCc1ccc(-c2ccc3ncnc(Nc4ccc(OCc5cccc(F)c5)c(Cl)c4)c3c2)o1 [Lapatinib] (partner 2 µM)
In short: as §1

Fedratinib + Pictilisib = compound: Cc1cnc(Nc2ccc(OCCN3CCCC3)cc2)nc1Nc1cccc(S(=O)(=O)NC(C)(C)C)c1 [Fedratinib] + CS(=O)(=O)N1CCN(Cc2cc3nc(-c4cccc5[nH]ncc45)nc(N4CCOCC4)c3s2)CC1 [Pictilisib] (partner 1 µM)
In short: as §1

Row | Cell Line | relative viability (GW-2580 + Pemetrexed; first compound 0.08 µM) | relative viability (GW-2580 + Pemetrexed; first compound 0.8 µM) | relative viability (GW-2580 + Pemetrexed; first compound 2.53 µM) | relative viability (GW-2580 + Pemetrexed; first compound 8 µM) | relative viability (Fedratinib + Bortezomib; first compound 0.1 µM) | relative viability (Fedratinib + Bortezomib; first compound 0.3162 µM) | relative viability (Fedratinib + Bortezomib; first compound 1 µM) | relative viability (GW-2580 + Olaparib; first compound 0.08 µM) | relative viability (GW-2580 + Olaparib; first compound 0.8 µM) | relative viability (GW-2580 + Olaparib; first compound 2.53 µM) | relative viability (GW-2580 + Olaparib; first compound 8 µM) | relative viability (Fedratinib + Lapatinib; first compound 0.1 µM) | relative viability (Fedratinib + Lapatinib; first compound 0.3162 µM) | relative viability (Fedratinib + Lapatinib; first compound 1 µM) | relative viability (Fedratinib + Pictilisib; first compound 0.1 µM) | relative viability (Fedratinib + Pictilisib; first compound 0.3162 µM) | relative viability (Fedratinib + Pictilisib; first compound 1 µM)
1 | NCI-H3122 | 0.212 | 0.211 | 0.203 | 0.207 | 0.991 | 0.981 | 0.485 | 0.682 | 0.739 | 0.675 | 0.648 | 1.04 | 0.966 | 0.555 | 0.621 | 0.551 | 0.152
2 | PC-3 [JPC-3] | 0.908 | 1.39 | 0.861 | 0.658 | 0.796 | 0.781 | 0.869 | 1.12 | 1.26 | 1.03 | 1.15 | 0.422 | 0.446 | 0.412 | 0.694 | 0.836 | 0.56
3 | PC-14 | 0.14 | 0.136 | 0.137 | 0.127 | 0.885 | 0.81 | 0.951 | 0.243 | 0.247 | 0.242 | 0.295 | 0.261 | 0.351 | 0.249 | 0.465 | 0.606 | 0.438
4 | RERF-LC-KJ | 0.491 | 0.44 | 0.504 | 0.523 | 1.06 | 1.16 | 1.05 | 1 | 1.04 | 0.888 | 0.861 | 0.879 | 0.844 | 0.838 | 0.431 | 0.545 | 0.462
5 | SK-LU-1 | 1.09 | 1.05 | 0.878 | 0.996 | 1.33 | 1.23 | 0.967 | 0.431 | 0.497 | 0.389 | 0.503 | 0.851 | 0.871 | 0.578 | 0.514 | 0.489 | 0.285
6 | SW 1573 | 0.908 | 0.883 | 0.861 | 0.639 | 1.05 | 0.911 | 0.983 | 0.477 | 0.474 | 0.492 | 0.543 | 1.13 | 1.15 | 1.01 | 0.444 | 0.391 | 0.463
